Measurements as given in patent publication US12174198B2, “Methods of characterizing condensate-associated characteristics of compounds and uses thereof” (Dewpoint Therapeutics, Inc., priority 2019, dated 2024).
Structures can show the parent of a compound that is named as a salt.

Assays:
PGL-3 condensates = target: T1, PGL-3 condensates (Caenorhabditis elegans, UniProt G5EBV6); experiment: Fluorescence imaging of dye partitioning in PGL-3 condensates (I-in, I-out); type: physicochemical; conditions: for Ratio of intensity inside:outside PGL-3 Condensates Day 1 / Ratio of intensity inside:outside PGL-3 Condensates Day 2 / Ratio of intensity inside:outside PGL-3 Condensates Average: I-in:I-out; for Ratio of intensity inside:outside PGL-3 Condensates Day 1 / Ratio of intensity inside:outside PGL-3 Condensates Day 2 / Ratio of intensity inside:outside PGL-3 Condensates Average / Intensity Inside with Dye Average / Intensity Inside with Dye 1 / Intensity Inside with Dye 2 / Intensity Inside with Dye 3 / Intensity Outside with Dye Average / Intensity Outside with Dye 1 / Intensity Outside with Dye 2 / Intensity Outside with Dye 3: 10 μM dye; for Ratio of intensity inside:outside PGL-3 Condensates Average: average of two days; for Intensity Inside with Dye Average / Intensity Inside with Dye 1 / Intensity Inside with Dye 2 / Intensity Inside with Dye 3 / Intensity Inside Dye-No Dye: inside PGL-3 condensate; for Intensity Inside with Dye Average / Intensity Inside with Dye 1 / Intensity Inside with Dye 2 / Intensity Inside with Dye 3 / Intensity Outside with Dye Average / Intensity Outside with Dye 1 / Intensity Outside with Dye 2 / Intensity Outside with Dye 3: 5 μM protein; for Intensity Inside with Dye Average / Intensity Outside with Dye Average: average of three images; for Intensity Inside with Dye Average / Intensity Inside with Dye 1 / Intensity Inside with Dye 2 / Intensity Inside with Dye 3 / Intensity Inside Dye-No Dye / Intensity Outside with Dye Average / Intensity Outside with Dye 1 / Intensity Outside with Dye 2 / Intensity Outside with Dye 3 / Intensity Outside (Dye-No Dye): one day of experiments; for Intensity Inside with Dye 1 / Intensity Outside with Dye 1: image 1; for Intensity Inside with Dye 2 / Intensity Outside with Dye 2: image 2; for Intensity Inside with Dye 3 / Intensity Outside with Dye 3: image 3; for Intensity Inside Dye-No Dye / Intensity Outside (Dye-No Dye): background corrected; for Intensity Outside with Dye Average / Intensity Outside with Dye 1 / Intensity Outside with Dye 2 / Intensity Outside with Dye 3 / Intensity Outside (Dye-No Dye): outside PGL-3 condensate
T1 sequence (G5EBV6 1-693): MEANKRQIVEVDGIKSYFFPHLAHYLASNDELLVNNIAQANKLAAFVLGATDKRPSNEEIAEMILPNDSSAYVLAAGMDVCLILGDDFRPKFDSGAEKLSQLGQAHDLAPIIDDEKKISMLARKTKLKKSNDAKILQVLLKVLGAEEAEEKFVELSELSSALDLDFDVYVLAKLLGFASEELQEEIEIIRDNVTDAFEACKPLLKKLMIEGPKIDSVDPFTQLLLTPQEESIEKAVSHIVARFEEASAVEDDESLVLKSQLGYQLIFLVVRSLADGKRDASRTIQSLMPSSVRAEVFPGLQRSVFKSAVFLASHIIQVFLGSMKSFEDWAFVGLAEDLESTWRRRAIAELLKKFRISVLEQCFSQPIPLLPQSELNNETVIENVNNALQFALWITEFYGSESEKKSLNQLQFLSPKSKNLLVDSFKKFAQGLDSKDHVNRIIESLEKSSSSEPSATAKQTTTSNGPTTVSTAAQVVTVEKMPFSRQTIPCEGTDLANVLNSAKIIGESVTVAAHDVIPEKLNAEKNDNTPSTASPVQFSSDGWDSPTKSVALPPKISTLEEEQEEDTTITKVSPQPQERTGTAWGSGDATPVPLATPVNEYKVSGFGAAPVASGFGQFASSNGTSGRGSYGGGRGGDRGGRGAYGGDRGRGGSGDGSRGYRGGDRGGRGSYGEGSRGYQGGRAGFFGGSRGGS
Method in brief: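 Partitioning read by spinning-disk confocal imaging (60× oil, dye-specific exposure 1-1000 ms) of condensates formed from 5 μM protein (FUS-SNAP or untagged PGL-3) plus 10 μM dye, 75 mM KCl, 1% DMSO, pH 7.25. Background-subtracted intensities inside and beside one condensate per image, three images averaged.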

FUS-SNAP condensates = target: T2, FUS-SNAP condensates (Homo sapiens, UniProt P35637); experiment: Fluorescence-based assay of compound partitioning compared with the MS assay (Example 4); type: physicochemical; conditions: condensate volume fraction of 1/1000 used
T2 sequence (P35637 1-526): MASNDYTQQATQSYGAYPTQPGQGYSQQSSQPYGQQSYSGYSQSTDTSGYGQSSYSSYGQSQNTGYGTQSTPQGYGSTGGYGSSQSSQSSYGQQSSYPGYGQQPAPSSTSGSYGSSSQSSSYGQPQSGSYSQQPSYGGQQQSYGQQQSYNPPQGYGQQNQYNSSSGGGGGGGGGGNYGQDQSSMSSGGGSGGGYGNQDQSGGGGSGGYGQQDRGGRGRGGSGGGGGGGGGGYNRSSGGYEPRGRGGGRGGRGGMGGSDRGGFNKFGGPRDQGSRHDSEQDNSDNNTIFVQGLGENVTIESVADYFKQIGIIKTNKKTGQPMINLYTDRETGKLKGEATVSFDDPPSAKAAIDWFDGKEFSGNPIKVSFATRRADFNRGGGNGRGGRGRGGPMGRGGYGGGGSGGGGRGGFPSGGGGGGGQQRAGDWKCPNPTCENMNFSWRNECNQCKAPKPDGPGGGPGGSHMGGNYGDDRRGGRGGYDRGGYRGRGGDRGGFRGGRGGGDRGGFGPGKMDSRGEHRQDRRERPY
Description: The partition characteristics of the test compounds were also determined using the fluorescence-based assay method disclosed in Example 2.
Rhodamine 101 (Rho 101), Rhodamine 800 ([…]), Rhodamine B (Rho B), Rhodamine 123 (Rho 123), and fluorescein were assessed using both the fluorescence-based assay and the mass spectrometry-based assay, as discussed above. […] Using the measurements, a ratio of compound concentration associated with the condensate compared to compound concentration not associated with the condensate was calculated for each compound. A condensate volume fraction of 1/1000 in relation to the outside phase was used.

SMILES	Ratio of intensity inside:outside PGL-3 Condensates Day 1 (PGL-3 condensates)	Ratio of intensity inside:outside PGL-3 Condensates Day 2 (PGL-3 condensates)	Ratio of intensity inside:outside PGL-3 Condensates Average (PGL-3 condensates)	Intensity Inside with Dye Average (PGL-3 condensates)	Intensity Inside with Dye 1 (PGL-3 condensates)	Intensity Inside with Dye 2 (PGL-3 condensates)	Intensity Inside with Dye 3 (PGL-3 condensates)	Intensity Inside Dye-No Dye (PGL-3 condensates)	Intensity Outside with Dye Average (PGL-3 condensates)	Intensity Outside with Dye 1 (PGL-3 condensates)	Intensity Outside with Dye 2 (PGL-3 condensates)	Intensity Outside with Dye 3 (PGL-3 condensates)	Intensity Outside (Dye-No Dye) (PGL-3 condensates)	Ratio of compound concentration in versus compound concentration out, Fluorescence-based assay (FUS-SNAP condensates)
O=C1OC2(c3ccc(O)cc3Oc3cc(O)ccc32)c2ccccc21 [Dye 6, Fluorescein]	1.0	1.0	1.0	4402.0	4585.4	4501.5	4119.2	4255.5	4166.2	4395.6	4190.8	3912.1	4060.8	1
COC(=O)c1ccccc1-c1c2ccc(=N)cc-2oc2cc(N)ccc12.Cl [Dye 14, Rhodamine 123]	1.1	1.1	1.1	2877.7	2874.7	2858.2	2900.3	2731.2	2596.6	2628.3	2616.4	2545.0	2491.2	1
CCN(CC)c1ccc2c(-c3ccccc3C(=O)O)c3ccc(=[N+](CC)CC)cc-3oc2c1 [Dye 16, Rhodamine B]	1.4	1.3	1.4	5776.5	5570.5	6179.8	5579.3	5675.0	4088.7	3907.8	4226.6	4131.5	3987.2	666
O=C([O-])c1ccccc1C1=c2cc3c4c(c2Oc2c1cc1c5c2CCCN5CCC1)CCC[N+]=4CCC3 [Dye 17, Rhodamine 101 inner salt]	1.8	1.9	1.9	13067.5	12579.6	14061.0	12561.8	12966.0	7117.9	7184.0	7157.1	7012.6	7016.4	1,500
N#CC1=c2cc3c4c(c2Oc2c1cc1c5c2CCCN5CCC1)CCC[N+]=4CCC3 [Dye 18, Rhodamine 800]	3.4	2.4	2.9	730.8	714.9	700.1	777.4	604.6	309.4	301.3	294.6	332.2	178.7	1,000
